Data on eleven compounds can be found in patent US9155795B2, “CXCR4 receptor compounds” (Anchor Therapeutics, Inc., priority 2010, dated 2015).

Where a SMILES comes first, the peptide text is derived from it. [ ]: non-standard residue; d: D form. The star is where a group is joined. 2Nal = N[C@@H](Cc1ccc2ccccc2c1)C(=O)O; Palmitoyl = CCCCCCCCCCCCCCCC(=O)*; Cit = NC(=O)NCCC[C@H](N)C(=O)O; Nle = CCCC[C@H](N)C(=O)O

The target of this assay is T1, CXCR4 (Homo sapiens, UniProt P61073).
T1 construct: CCRF-CEM cells, a human T-cell ALL line that endogenously expresses CXCR4; endogenous in cells; host or cells: CCRF-CEM (human T-cell acute lymphoblastic leukemia line)
T1 sequence (P61073 whole entry): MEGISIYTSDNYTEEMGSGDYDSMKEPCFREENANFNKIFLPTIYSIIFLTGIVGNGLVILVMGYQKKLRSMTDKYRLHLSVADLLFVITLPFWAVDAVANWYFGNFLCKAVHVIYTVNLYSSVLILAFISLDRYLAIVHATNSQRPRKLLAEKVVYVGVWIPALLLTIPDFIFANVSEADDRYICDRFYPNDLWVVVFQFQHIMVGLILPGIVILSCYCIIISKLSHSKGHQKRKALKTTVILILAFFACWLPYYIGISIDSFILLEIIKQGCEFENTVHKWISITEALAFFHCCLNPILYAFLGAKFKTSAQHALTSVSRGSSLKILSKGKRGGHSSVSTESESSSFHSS
Briefly: Calcium flux assay, agonist mode, Flexstation (CCRF-CEM cells). The assay is classed as cell-based. The following applies: CCRF-CEM, percent of maximum response compared with SDF-1α, read-out: % Intrinsic Activity. The text has this:
Calcium Flux Assay is one of the most popular cell-based GPCR functional assays. It most often uses calcium sensing fluorescent dyes such as fura2 AM, fluo-4 and Calcium-4 to measure changes in intracellular calcium concentration. It is used mainly to detect GPCR signaling via Gαq subunit. Activation of these Gq-coupled GPCRs leads to activation of phospholipase C, which subsequently leads to increase in inositol phosphate production. IP3 receptors on endoplasmic reticulum sense the change then release calcium into cytoplasm. Intracellular calcium binding to the fluorescent dyes can be detected by instruments that quantify fluorescent intensities, such as FLIPR Tetra, Flexstation (MDS) and FDSS (Hamamatsu). In addition, to assess Gq-couple receptor signaling, a calcium flux assay can also be used to study Gs and Gi couple receptors by co-expressing CNG (cyclic nucleotide gated calcium channel) or chimeric G-proteins (Gqi5, Gsi5 for example). Activation of some Gi-coupled receptors can also be detected by calcium flux assay via Gβγ mediated phospholipase C activation.
The calcium flux assay was used to assess the test compounds' ability to activate the CXCR4 receptor in CCRF-CEM cells (human T lymphoblasts from acute lymphoblastic leukemia). […] After dye loading by incubating with Calcium-4 dye at 37° C. for 1 hour, cell plates were read at 37° C. using the using the Flexstation 3 workstation. Receptor activation was assessed by measuring changes in fluorescent intensity after the addition of the test compounds or the reference agonist SDF-1α on the using the Flexstation 3 workstation. EC50
and percent intrinsic actively were derived from the data collected. Intrinsic activity refers to the efficacy of the test compound and is calculated as the percent of maximum response compared with the response of the reference standard (i.e., natural agonist, SDF-1α).
A general note: A change in cytosolic calcium serves as a functional read-out for many receptors and channels.
For the compound `CCCCCCCCCCCCCCCC(=O)N[C@@H](CCSC)C(=O)NCC(=O)N[C@@H](Cc1ccc(O)cc1)C(=O)N[C@@H](CCC(N)=O)C(=O)N[C@@H](CCCCN)C(=O)N1CCC[C@H]1C(=O)N[C@@H](CC(C)C)C(=O)N[C@@H](CCCNC(=N)N)C(=O)N[C@@H](CO)C(=O)N[C@@H](CCSC)C(=O)N[C@H](C(=O)N[C@@H](CC(=O)O)C(=O)N[C@@H](CCCCN)C(=O)N[C@@H](Cc1ccc(O)cc1)C(=O)N[C@@H](CCCNC(=N)N)C(=O)N[C@@H](CC(C)C)C(N)=O)[C@@H](C)O` [Compound 6] (Palmitoyl-MGYQKPLRSMTDKYRL-NH2; C-terminus assumed), the Emax was 90.2%.

Consider `CCCCCCCCCCCCCCCC(=O)N[C@@H](CCSC)C(=O)NCC(=O)N[C@@H](Cc1ccc(O)cc1)C(=O)N[C@@H](CCC(N)=O)C(=O)N[C@@H](CCCCN)C(=O)N[C@@H](CCCCN)C(=O)N[C@@H](CC(C)C)C(=O)N1CCC[C@H]1C(=O)N[C@@H](CCCNC(=N)N)C(=O)N[C@@H](CO)C(=O)N[C@@H](CCSC)C(=O)N[C@H](C(=O)N[C@@H](CC(=O)O)C(=O)N[C@@H](CCCCN)C(=O)N[C@@H](Cc1ccc(O)cc1)C(=O)N[C@@H](CCCNC(=N)N)C(=O)N[C@@H](CC(C)C)C(N)=O)[C@@H](C)O` [Compound 7] (Palmitoyl-MGYQKKLPRSMTDKYRL-NH2; C-terminus assumed), for which the Emax was 100%.

Turning to `CCCCCCCCCCCCCCCC(=O)N[C@@H](CCSC)C(=O)NCC(=O)N[C@@H](Cc1ccc(O)cc1)C(=O)N[C@@H](CCC(N)=O)C(=O)N[C@@H](CCCCN)C(=O)N[C@@H](CCCCN)C(=O)N[C@@H](CC(C)C)C(=O)N[C@@H](CCCNC(=N)N)C(=O)N1CCC[C@H]1C(=O)N[C@@H](CO)C(=O)N[C@@H](CCSC)C(=O)N[C@H](C(=O)N[C@@H](CC(=O)O)C(=O)N[C@@H](CCCCN)C(=O)N[C@@H](Cc1ccc(O)cc1)C(=O)N[C@@H](CCCNC(=N)N)C(=O)N[C@@H](CC(C)C)C(N)=O)[C@@H](C)O` [Compound 8] (Palmitoyl-MGYQKKLRPSMTDKYRL-NH2; C-terminus assumed), the Emax came to 88%.

For `CCCCCCCCCCCCCCCC(=O)N[C@@H](CCSC)C(=O)NCC(=O)N[C@@H](Cc1ccc(O)cc1)C(=O)N[C@@H](CCC(N)=O)C(=O)N[C@@H](CCCCN)C(=O)N[C@@H](CCCCN)C(=O)N[C@@H](CC(C)C)C(=O)N[C@@H](CCCNC(=N)N)C(=O)N[C@@H](CO)C(=O)N1CCC[C@@H]1C(=O)N[C@@H](CCSC)C(=O)N[C@H](C(=O)N[C@@H](CC(=O)O)C(=O)N[C@@H](CCCCN)C(=O)N[C@@H](Cc1ccc(O)cc1)C(=O)N[C@@H](CCCNC(=N)N)C(=O)N[C@@H](CC(C)C)C(N)=O)[C@@H](C)O` [Compound 9] (Palmitoyl-MGYQKKLRS[dP]MTDKYRL-NH2; C-terminus assumed), the Emax came to 77.9%.

`CCCCCCCCCCCCCCCC(=O)N[C@@H](CCSC)C(=O)NCC(=O)N[C@@H](Cc1ccc(O)cc1)C(=O)N[C@@H](CCC(N)=O)C(=O)N[C@@H](CCCCN)C(=O)N[C@@H](CCCCN)C(=O)N[C@@H](CC(C)C)C(=O)N[C@@H](CCCNC(=N)N)C(=O)N[C@@H](CO)C(=O)N[C@@H](CCSC)C(=O)N[C@H](C(=O)N[C@@H](CC(=O)O)C(=O)N[C@@H](CCCCN)C(=O)N[C@@H](Cc1ccc(O)cc1)C(=O)N[C@@H](CCCNC(=N)N)C(=O)N[C@H](C(N)=O)C(C)C)[C@@H](C)O` [Compound 11] (Palmitoyl-MGYQKKLRSMTDKYRV-NH2; C-terminus assumed): the Emax came to 61.7%.

Take `CCCCCCCCCCCCCCCC(=O)N[C@@H](CCSC)C(=O)NCC(=O)N[C@@H](Cc1ccc(O)cc1)C(=O)N[C@@H](CCC(N)=O)C(=O)N[C@@H](CCCCN)C(=O)N[C@@H](CCCCN)C(=O)N[C@@H](CC(C)C)C(=O)N[C@@H](CCCNC(=N)N)C(=O)N[C@@H](CO)C(=O)N[C@@H](CCSC)C(=O)N[C@H](C(=O)N[C@@H](CC(=O)O)C(=O)N[C@@H](CCCCN)C(=O)N[C@@H](Cc1ccc(O)cc1)C(=O)N[C@@H](CCCNC(=N)N)C(=O)N[C@@H](CCCC)C(N)=O)[C@@H](C)O` [Compound 12] (Palmitoyl-MGYQKKLRSMTDKYR[Nle]-NH2; C-terminus assumed): the Emax was found to be 73.2%.

As to `CCCCCCCCCCCCCCCC(=O)N[C@@H](CCSC)C(=O)NCC(=O)N[C@@H](Cc1ccc(O)cc1)C(=O)N[C@@H](CCC(N)=O)C(=O)N[C@@H](CCCCN)C(=O)N[C@@H](CCCCN)C(=O)N[C@@H](CC(C)C)C(=O)N[C@@H](CCCNC(=N)N)C(=O)N[C@@H](CO)C(=O)N[C@@H](CCSC)C(=O)N[C@H](C(=O)N[C@@H](CC(=O)O)C(=O)N[C@@H](CCCCN)C(=O)N[C@@H](Cc1ccc(O)cc1)C(=O)N[C@@H](CCCCN)C(=O)N[C@@H](CC(C)C)C(N)=O)[C@@H](C)O` [Compound 13] (Palmitoyl-MGYQKKLRSMTDKYKL-NH2; C-terminus assumed), the Emax was 61.4%.

In the case of `CCCCCCCCCCCCCCCC(=O)N[C@@H](CCSC)C(=O)NCC(=O)N[C@@H](Cc1ccc(O)cc1)C(=O)N[C@@H](CCC(N)=O)C(=O)N[C@@H](CCCCN)C(=O)N[C@@H](CCCCN)C(=O)N[C@@H](CC(C)C)C(=O)N[C@@H](CCCNC(=N)N)C(=O)N[C@@H](CO)C(=O)N[C@@H](CCSC)C(=O)N[C@H](C(=O)N[C@@H](CC(=O)O)C(=O)N[C@@H](CCCCN)C(=O)N[C@@H](Cc1ccc(O)cc1)C(=O)N[C@@H](CCCNC(N)=O)C(=O)N[C@@H](CC(C)C)C(N)=O)[C@@H](C)O` [Compound 14] (Palmitoyl-MGYQKKLRSMTDKY[Cit]L-NH2), the Emax was found to be 3.61%.

As for `CCCCCCCCCCCCCCCC(=O)N[C@@H](CCSC)C(=O)NCC(=O)N[C@@H](Cc1ccc(O)cc1)C(=O)N[C@@H](CCC(N)=O)C(=O)N[C@@H](CCCCN)C(=O)N[C@@H](CCCCN)C(=O)N[C@@H](CC(C)C)C(=O)N[C@@H](CCCNC(=N)N)C(=O)N[C@@H](CO)C(=O)N[C@@H](CCSC)C(=O)N[C@H](C(=O)N[C@@H](CC(=O)O)C(=O)N[C@@H](CCCCN)C(=O)N[C@@H](Cc1ccccc1)C(=O)N[C@@H](CCCNC(=N)N)C(=O)N[C@@H](CC(C)C)C(N)=O)[C@@H](C)O` [Compound 15] (Palmitoyl-MGYQKKLRSMTDKFRL-NH2; C-terminus assumed), the Emax is 81.5%.

Turning to `CCCCCCCCCCCCCCCC(=O)N[C@@H](CCSC)C(=O)NCC(=O)N[C@@H](Cc1ccc(O)cc1)C(=O)N[C@@H](CCC(N)=O)C(=O)N[C@@H](CCCCN)C(=O)N[C@@H](CCCCN)C(=O)N[C@@H](CC(C)C)C(=O)N[C@@H](CCCNC(=N)N)C(=O)N[C@@H](CO)C(=O)N[C@@H](CCSC)C(=O)N[C@H](C(=O)N[C@@H](CC(=O)O)C(=O)N[C@@H](CCCCN)C(=O)N[C@@H](Cc1ccc2ccccc2c1)C(=O)N[C@@H](CCCNC(=N)N)C(=O)N[C@@H](CC(C)C)C(N)=O)[C@@H](C)O` [Compound 16] (Palmitoyl-MGYQKKLRSMTDK[2Nal]RL-NH2; C-terminus assumed), the Emax was 34.4%.

For the compound `CCCCCCCCCCCCCCCC(=O)N[C@@H](CCSC)C(=O)NCC(=O)N[C@@H](Cc1ccc(O)cc1)C(=O)N[C@@H](CCC(N)=O)C(=O)N[C@@H](CCCCN)C(=O)N[C@@H](CCCCN)C(=O)N[C@@H](CC(C)C)C(=O)N[C@@H](CCCNC(=N)N)C(=O)N[C@@H](CO)C(=O)N[C@@H](CCCC)C(=O)N[C@H](C(=O)N[C@@H](CC(=O)O)C(=O)N[C@@H](CCCCN)C(=O)N[C@@H](Cc1ccc(O)cc1)C(=O)N[C@@H](CCCNC(=N)N)C(=O)N[C@@H](CC(C)C)C(N)=O)[C@@H](C)O` [Compound 17] (Palmitoyl-MGYQKKLRS[Nle]TDKYRL-NH2; C-terminus assumed), the Emax was 62.7%.
